According to publication PMC4806471, “Oral proteasome inhibitor with strong preclinical efficacy in myeloma models” (BMC Cancer, 2016):

Tests used:
MM.1S xenografts [1] = assay: MM.1S xenograft study of LC53-0151 with or without pomalidomide; type: in vivo, mice; settings: pomalidomide 2.5 mg/kg oral 5 days per week, 3 weeks; not statistically significant
Procedure: (§1) In vivo efficacy studies were performed in female BALB/c nude mice (8 weeks old) purchased from ORIENT Bio or female NOD.SCID mice (11–13 weeks old) purchased from HFK Bioscience. The animals were housed and maintained in a controlled environment including a 12 h light and 12 h dark cycle with automatic timers and received food and water ad libitum. All experiments were done under protocols approved by the Institutional Animal Care and Use Committee (IACUC). Moribund animals were sacrificed when necessary and animal carcasses were disposed of according to IACUC guidelines.
1 × 10^7 MM.1S tumor cells in 0.1 ml of Dulbecco’s Phosphate-Buffered Saline (1:1 matrigel) were implanted subcutaneously into the right flank of female athymic nude mice. Tumor growth was monitored with calipers and mice were divided into homogeneous cohorts according to their initial tumor volume. […] The compounds were formulated in 0.5 % methyl cellulose and administered at the indicated doses and regimens by oral gavage at a dose volume of 10 mL/kg. […] The mean, standard deviation (SD), and standard error of the mean (SEM) were calculated for each experimental group, and statistical analyses were performed using standard two tailed Student’s t-test (significance defined as P ≤ 0.05). […]

20S proteasome T-L, β2 = target: T1, 20S proteasome T-L, β2 (Homo sapiens, UniProt Q99436); assay: In vitro 20S proteasome inhibition in RPMI8226 cell lysate, Z-Ala-Arg-Arg-AMC substrate; type: biochemical; settings: RPMI8226 cellular lysates, 1 h at 37 °C
T1 sequence (Q99436 44-277): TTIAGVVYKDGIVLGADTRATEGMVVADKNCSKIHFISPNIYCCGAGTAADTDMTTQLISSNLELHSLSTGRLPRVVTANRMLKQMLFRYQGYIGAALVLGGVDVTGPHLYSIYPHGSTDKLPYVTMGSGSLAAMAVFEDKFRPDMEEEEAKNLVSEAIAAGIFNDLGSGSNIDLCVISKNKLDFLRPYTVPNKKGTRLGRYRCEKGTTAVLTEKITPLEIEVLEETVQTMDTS
Procedure: (§2) Pomalidomide was purchased from Tokyo Chemical Industry.
(§3) RPMI8226 cell lysate was used for the in vitro proteasome inhibition assay. Cells were washed with PBS and resuspended in 20 mM Tris–HCl, pH 7.5. Then, cells were lysed on ice by dounce homogenization and the supernatants were collected by centrifugation. The assay was conducted in 96-well plates by incubating 2 μg of lysates with serial dilutions of a test compound and 20 μM of substrate at 37 °C for 1 h. After incubation, production of hydrolyzed AMC groups was measured using a FlexStation II Fluorometer (Molecular Devices) or using a Spectra MAX Gemini Fluorometer (Molecular Devices) with an excitation filter of 380 nm and an emission filter of 460 nm.

20S proteasome C-L, β1 = target: T2, 20S proteasome C-L, β1 (Homo sapiens, UniProt P28072+Q99436); assay: In vitro 20S proteasome inhibition in RPMI8226 cell lysate, Z-Leu-Leu-Glu-AMC substrate; type: biochemical; settings: RPMI8226 cellular lysates, 1 h at 37 °C
T2 construct: endogenous in cells; host or cells: RPMI8226 (human multiple myeloma)
Procedure: as §2, §3

proteasome CT-L activity = assay: Binding kinetics: CT-L activity in RPMI8226 cells at different time points after 1-h pulse treatment; type: cell-based, human; settings: CT-L activity in RPMI8226 cells after 1-h pulse treatment
[2] = system: CD138+ cells from bone marrow of MM patients; assay: Viability of primary myeloma cells from MM patients (CellTiter-Glo); type: cell-based, human; settings: patient 14 sample (bortezomib- and ixazomib-refractory), 48 h, % over DMSO control
Procedure: (§4) Primary MM cells were retrieved from bone marrow of patients and were enriched by Ficoll density centrifugation to a purity of >90 %, as necessary. Purity was assessed by cytomorphology on stained samples. CD138^+ cells were collected using magnetic beads (Miltenyi Biotec) and plated at a density of 8 × 10^4 cells per well onto 96-well plates in RPMI-1640 (WELGENE) containing 10 % FBS (WELGENE), 1 % penicillin-streptomycin-amphotericin B (Gibco), and 2 mM L-glutamine. Cells were then treated with a serial dilution of compound in medium containing a final concentration of 0.2 % DMSO. Cultures were incubated for 48 h and cells were then assayed for viability using the CellTiter-Glo Luminescent Cell Viability Assay kit (Promega).

[3] = Cytotoxicity in normal PBMC from healthy donors (CellTiter-Glo); type: cell-based; settings: human, 10,000 nM, read-out: Viability of normal PBMC at highest concentration tested
Procedure: as §4
Peripheral blood mononuclear cells (PBMCs) isolated from the heparinized blood samples of normal healthy donors were also plated and processed as described above.

MM.1S xenografts [4] = assay: Anti-tumor activity of repeat oral dosing in MM.1S xenograft model; type: in vivo, mice; settings: 5 mg/kg oral twice a week
Procedure: as §1
1 × 10^7 MM.1S tumor cells in 0.1 ml of Dulbecco’s Phosphate-Buffered Saline (1:1 matrigel) were implanted subcutaneously into the right flank of female athymic nude mice. Tumor growth was monitored with calipers and mice were divided into homogeneous cohorts according to their initial tumor volume. […] The compounds were formulated in 0.5 % methyl cellulose and administered at the indicated doses and regimens by oral gavage at a dose volume of 10 mL/kg. For the RPMI8226 model, a total of 1 × 10^7 cells in 0.2 ml of PBS (1:1 matrigel) were implanted subcutaneously into the hind flank of female NOD.SCID mice. Whole blood was collected by cardiac puncture into tubes containing sodium heparin and cells were harvested by centrifugation. Blood cell pellets and tumor tissues were homogenized in lysis buffer (50 mM Tris–HCl, pH 8.0, 5 mM EDTA, 150 mM NaCl, 0.5 % Nonidet P-40, 0.5 mM phenylmethylsulfonyl fluoride, and 0.5 mM dithiothreitol) for 30 min at 4 °C. The lysates were centrifuged at 14,000 × g for 30 min, and the supernatants were collected as whole blood cell extracts and tumor cell extracts, respectively, for pharmacodynamic analysis. […] The mean, standard deviation (SD), and standard error of the mean (SEM) were calculated for each experimental group, and statistical analyses were performed using standard two tailed Student’s t-test (significance defined as P ≤ 0.05).

RPMI8226 xenografts = assay: Anti-tumor activity of repeat dosing in RPMI8226 xenograft model; type: in vivo; settings: 5 mg/kg oral, the day after the first treatment, NOD.SCID mice
Procedure: as §1
1 × 10^7 MM.1S tumor cells in 0.1 ml of Dulbecco’s Phosphate-Buffered Saline (1:1 matrigel) were implanted subcutaneously into the right flank of female athymic nude mice. Tumor growth was monitored with calipers and mice were divided into homogeneous cohorts according to their initial tumor volume. […] The compounds were formulated in 0.5 % methyl cellulose and administered at the indicated doses and regimens by oral gavage at a dose volume of 10 mL/kg. […] The mean, standard deviation (SD), and standard error of the mean (SEM) were calculated for each experimental group, and statistical analyses were performed using standard two tailed Student’s t-test (significance defined as P ≤ 0.05).

Nc1cccc2c1C(=O)N(C1CCC(=O)NC1=O)C2=O (stereo not drawn) [pomalidomide, Pomalidomide]
Reduction of tumor volume compared to vehicle-treated mice (MM.1S xenografts [1]): 10%

CC(C)C[C@H](NC(=O)CNC(=O)c1cc(Cl)ccc1Cl)B(O)O [Ixazomib]
IC50 (20S proteasome T-L, β2): > 10000 nM
IC50 (20S proteasome C-L, β1): 6 to 7 nM
Binding kinetics (proteasome CT-L activity): reversible
Viability at 12.5 nM [2]: did not show any effect on viability
viability at 48 h, 10000 nM [3]: > 50%
Tumor volume, % of start tumor volume (maximum regression) (MM.1S xenografts [4]; day 8): 36%
Tumor growth inhibition compared to vehicle control (MM.1S xenografts [4]; day 15): 72%
Tumor volume, % of start tumor volume (MM.1S xenografts [4]; day 15): 58%
Mortality in efficacy model (RPMI8226 xenografts): all 8 mice died or were euthanized

CC(C)C[C@H](NC(=O)[C@H](Cc1ccccc1)NC(=O)c1cnccn1)B(O)O [Bortezomib]
Binding kinetics (proteasome CT-L activity): reversible

CC(C)C[C@H](NC(=O)[C@H](CCc1ccccc1)NC(=O)CN1CCOCC1)C(=O)N[C@@H](Cc1ccccc1)C(=O)N[C@@H](CC(C)C)C(=O)[C@@]1(C)CO1 [Carfilzomib]
Binding kinetics (proteasome CT-L activity): irreversible
